A short description of data set [1]: in vitro. In kind it is cell-based. To be noted: human. The procedure: To evaluate the EC50 of our compounds, various drug concentrations are incubated with the infected cell for six days and then the metabolic activity of the cells is monitored by the MTT assay. (See A. J. Japour et al, Antimicrobial Agents and Chemotherapy, 37, 1095-1101, 1993 and R. Pauwels et al. Journal of Virological Methods, 20, 309-321, 1988).
We use the laboratory viral strain NL4.3 as wild type virus and the cell line used is MT-4 which is a T-cell line highly sensitive to HIV-1. We also use some WT clinical strains. To address the resistance issue we assay the inhibitors with NL4.3 mutants which are designed to be resistant to specific commercially available inhibitors.
The same MTT assay is used to evaluate the CCIC50 (cell culture IC50) of our compounds except that the virus is omitted.

In data set [2] the target is HIV protease (Human immunodeficiency virus type 1 group M subtype B, UniProt P04585). Kind of data set: Enzymatic (FRET fluorometric) assay for determining the inhibition constant (Ki) of compounds targeting the HIV protease. Format: biochemical. The conditions noted are these: Ki, FRET substrate (EDANS/DABCYL), equation of Henderson. The text has this:
Enzymatic Assay for Determining the Inhibition Constant (Ki) of Synthetic Compounds Targeting the HIV Protease
This is a fluorometric assay based on the cleavage by protease of a substrate carrying a donor group (EDANS) and an acceptor group (DABCYL) on each side of the cleavage site, interacting together through fluorescence resonance energy transfer (FRET) as described by Matayoshi et al. (Science 247:[…], 1990).
After calculation of Vo and Vi, the inhibition constant (Ki) of the compound is determined using the equation of Henderson: [formula]
where Vo=the enzyme's initial velocity
Vi=the enzyme velocity in the presence of the inhibitory compound,
[I]=inhibitor concentration, [S]=substrate concentration,
Km=Michaelis-Menten constant and Kiapp=apparent Ki
Graphs are traced and the Ki determined using GraphPad Prism software v. 3.0.

The term IC50 denotes the point on the concentration scale where inhibition reaches its midpoint. Read a low IC50 as greater potency. Broadly, the Ki is a dissociation constant, usually derived from enzyme kinetics or from competition with a known ligand. Lower therefore signals a stronger hold on the target. In data set [1], `CC(C)CN([C@H](CO)CCCCNC(=O)N(Cc1ccccc1)Cc1ccc2c(c1)OCO2)S(=O)(=O)c1ccc(N)cc1` [Example 82, (2S) 2-N-(4-Aminobenzenesulfonyl)-2-N-isobutyl-6-N-(N′-benzyl-N′-piperonylaminocarbonyl)-2,6-diaminohexanol] had an IC50 at 6 days of 12.5 µM. For the same compound, in data set [2], the affinity, expressed as Ki, was 0.0026 µM.

The compound `CC(C)CCN([C@H](CO)CCCCNC(=O)N(Cc1ccncc1)Cc1ccc2c(c1)OCO2)S(=O)(=O)c1ccc(N)cc1` [Example 95, (2S) 2-N-(4-Aminobenzenesulfonyl)-2-N-(3-methylbutyl)-6-N-[N′-(4-picolyl)-N′-piperonylaminocarbonyl]-2,6-diaminohexanol] showed an IC50 at 6 days in data set [1] of 28.8 µM. The same measure, in the same setting: to `CC(C)CCN([C@H](CO)CCCCNC(=O)N(Cc1ccc(F)cc1)Cc1ccc2c(c1)OCO2)S(=O)(=O)c1ccc(N)cc1` [Example 102, (2S) 2-N-(4-Aminobenzenesulfonyl)-2-N-(3-methylbutyl)-6-N-[N′-(4-fluorobenzyl)-N′-piperonylaminocarbonyl]-2,6-diaminohexanol] belongs 24.4 µM. Same read-out and setting: with `COc1cc(CN(Cc2ccc3c(c2)OCO3)C(=S)NCCCC[C@@H](CO)N(CCC(C)C)S(=O)(=O)c2ccc(N)cc2)cc(OC)c1OC` [Example 107, (2S) 2-N-(4-Aminobenzenesulfonyl)-2-N-(3-methylbutyl)-6-N-[N′-(3,4,5-trimethoxybenzyl)-N′-piperonylaminothiocarbonyl]-2,6-diaminohexanol] the figure was 10.7 µM. Compound `Cc1ccc(S(=O)(=O)N(CC(C)C)[C@H](CO)CCCCNC(=O)N(Cc2ccccc2)Cc2ccccc2[N+](=O)[O-])cc1` [Example 59, (2S) 2-N-Isobutyl-2-N-(4-methylbenzenesulfonyl)-6-N-[N′-benzyl-N′-(2-nitrobenzyl)aminocarbonyl]-2,6-diaminohexanol] yielded an IC50 at 6 days in data set [1] of 4.6 µM. Moreover, in data set [2], affinity was put at a Ki of 0.0017 µM. With `Cc1ccc(S(=O)(=O)N(CC(C)C)[C@H](CO)CCCCNC(=O)N(Cc2ccccc2)Cc2cccc([N+](=O)[O-])c2)cc1` [Example 60, (2S) 2-N-Isobutyl-2-N-(4-methylbenzenesulfonyl)-6-N-[N′-benzyl-N′-(3-nitrobenzyl)aminocarbonyl]-2,6-diaminohexanol], half-maximal inhibition in data set [1] (IC50 at 6 days) required 4.6 µM. For the same compound, affinity in data set [2] was put at a Ki of 0.006 µM. For `CC(C)CN([C@H](CO)CCCCNC(=O)N(Cc1ccc(F)cc1)Cc1ccc2c(c1)OCO2)S(=O)(=O)c1ccc(N)cc1` [Example 67, (2S) 2-N-(4-Aminobenzenesulfonyl)-2-N-isobutyl-6-N-[N′-(4-fluorobenzyl)-N′-piperonylaminocarbonyl]-2,6-diaminohexanol], in that order: 11 µM and 0.002 µM. Turning to `CC(C)CN([C@H](CO)CCCCNC(=O)N(Cc1ccc2c(c1)OCO2)Cc1ccc2c(c1)OCO2)S(=O)(=O)c1ccc(N)cc1` [Example 85, (2S) 2-N-(4-Aminobenzenesulfonyl)-2-N-isobutyl-6-N-(N′,N′-dipiperonylaminocarbonyl)-2,6-diaminohexanol], in data set [1], the IC50 at 6 days worked out at 13.1 µM. Besides, in data set [2], the Ki was 0.0017 µM.

`Cc1ccc(S(=O)(=O)N(CC(C)C)[C@H](CO)CCCCNC(=O)N(Cc2ccccc2)Cc2ccc([N+](=O)[O-])cc2)cc1` [Example 61, (2S) 2-N-Isobutyl-2-N-(4-methylbenzenesulfonyl)-6-N-[N′-benzyl-N′-(4-nitrobenzyl)aminocarbonyl]-2,6-diaminohexanol] registered an IC50 at 6 days in data set [1] of 5.1 µM. The compound further returned an inhibition constant Ki in data set [2] of 0.009 µM.

These data come from patent US6528532B1, “Urea derivatives as HIV aspartyl protease inhibitors” (Pharmacor Inc., priority 2002, dated 2003).
